According to patent US9884828B2, “Substituted cinnolines as inhibitors of LRRK2 kinase activity” (Imago Pharmaceuticals, Inc., priority 2011, dated 2018):
pIC50: −log10 of the molar value. Where two headings read alike, the source gives them in different places.

Molecular target: recombinant GST-LRRK2 (wild-type) (Homo sapiens (Human), UniProt Q5S007)
Experiment: LRRK2 TR-FRET peptide assay (in vitro kinase activity), wild-type
Assay type: biochemical
Procedure: Compounds as described herein (compounds of Formula I, e.g., compounds of the above Examples) are tested for their in vitro kinase activities using various LRRK2 (including LRRK2 G2019S mutant) assays. […] Serially diluted compounds (1% DMSO as co-solvent) were pre-incubated with recombinant GST-LRRK2 (wild-type, or G2019S mutant, Invitrogen) for 15 minutes at room temperature in 384-well Corning black plates. […] The inhibition of each well was calculated using the control and background readings for that plate. IC50 values were determined from dose-response curves using eight concentrations from the serial dilution of the test compounds.

[1] = 100 μM ATP, 100 nM biotin-LRRKtide substrate, 10 nM kinase, 60 minutes at room temperature

recombinant GST-LRRK2 (wild-type), sequence (Q5S007 whole entry): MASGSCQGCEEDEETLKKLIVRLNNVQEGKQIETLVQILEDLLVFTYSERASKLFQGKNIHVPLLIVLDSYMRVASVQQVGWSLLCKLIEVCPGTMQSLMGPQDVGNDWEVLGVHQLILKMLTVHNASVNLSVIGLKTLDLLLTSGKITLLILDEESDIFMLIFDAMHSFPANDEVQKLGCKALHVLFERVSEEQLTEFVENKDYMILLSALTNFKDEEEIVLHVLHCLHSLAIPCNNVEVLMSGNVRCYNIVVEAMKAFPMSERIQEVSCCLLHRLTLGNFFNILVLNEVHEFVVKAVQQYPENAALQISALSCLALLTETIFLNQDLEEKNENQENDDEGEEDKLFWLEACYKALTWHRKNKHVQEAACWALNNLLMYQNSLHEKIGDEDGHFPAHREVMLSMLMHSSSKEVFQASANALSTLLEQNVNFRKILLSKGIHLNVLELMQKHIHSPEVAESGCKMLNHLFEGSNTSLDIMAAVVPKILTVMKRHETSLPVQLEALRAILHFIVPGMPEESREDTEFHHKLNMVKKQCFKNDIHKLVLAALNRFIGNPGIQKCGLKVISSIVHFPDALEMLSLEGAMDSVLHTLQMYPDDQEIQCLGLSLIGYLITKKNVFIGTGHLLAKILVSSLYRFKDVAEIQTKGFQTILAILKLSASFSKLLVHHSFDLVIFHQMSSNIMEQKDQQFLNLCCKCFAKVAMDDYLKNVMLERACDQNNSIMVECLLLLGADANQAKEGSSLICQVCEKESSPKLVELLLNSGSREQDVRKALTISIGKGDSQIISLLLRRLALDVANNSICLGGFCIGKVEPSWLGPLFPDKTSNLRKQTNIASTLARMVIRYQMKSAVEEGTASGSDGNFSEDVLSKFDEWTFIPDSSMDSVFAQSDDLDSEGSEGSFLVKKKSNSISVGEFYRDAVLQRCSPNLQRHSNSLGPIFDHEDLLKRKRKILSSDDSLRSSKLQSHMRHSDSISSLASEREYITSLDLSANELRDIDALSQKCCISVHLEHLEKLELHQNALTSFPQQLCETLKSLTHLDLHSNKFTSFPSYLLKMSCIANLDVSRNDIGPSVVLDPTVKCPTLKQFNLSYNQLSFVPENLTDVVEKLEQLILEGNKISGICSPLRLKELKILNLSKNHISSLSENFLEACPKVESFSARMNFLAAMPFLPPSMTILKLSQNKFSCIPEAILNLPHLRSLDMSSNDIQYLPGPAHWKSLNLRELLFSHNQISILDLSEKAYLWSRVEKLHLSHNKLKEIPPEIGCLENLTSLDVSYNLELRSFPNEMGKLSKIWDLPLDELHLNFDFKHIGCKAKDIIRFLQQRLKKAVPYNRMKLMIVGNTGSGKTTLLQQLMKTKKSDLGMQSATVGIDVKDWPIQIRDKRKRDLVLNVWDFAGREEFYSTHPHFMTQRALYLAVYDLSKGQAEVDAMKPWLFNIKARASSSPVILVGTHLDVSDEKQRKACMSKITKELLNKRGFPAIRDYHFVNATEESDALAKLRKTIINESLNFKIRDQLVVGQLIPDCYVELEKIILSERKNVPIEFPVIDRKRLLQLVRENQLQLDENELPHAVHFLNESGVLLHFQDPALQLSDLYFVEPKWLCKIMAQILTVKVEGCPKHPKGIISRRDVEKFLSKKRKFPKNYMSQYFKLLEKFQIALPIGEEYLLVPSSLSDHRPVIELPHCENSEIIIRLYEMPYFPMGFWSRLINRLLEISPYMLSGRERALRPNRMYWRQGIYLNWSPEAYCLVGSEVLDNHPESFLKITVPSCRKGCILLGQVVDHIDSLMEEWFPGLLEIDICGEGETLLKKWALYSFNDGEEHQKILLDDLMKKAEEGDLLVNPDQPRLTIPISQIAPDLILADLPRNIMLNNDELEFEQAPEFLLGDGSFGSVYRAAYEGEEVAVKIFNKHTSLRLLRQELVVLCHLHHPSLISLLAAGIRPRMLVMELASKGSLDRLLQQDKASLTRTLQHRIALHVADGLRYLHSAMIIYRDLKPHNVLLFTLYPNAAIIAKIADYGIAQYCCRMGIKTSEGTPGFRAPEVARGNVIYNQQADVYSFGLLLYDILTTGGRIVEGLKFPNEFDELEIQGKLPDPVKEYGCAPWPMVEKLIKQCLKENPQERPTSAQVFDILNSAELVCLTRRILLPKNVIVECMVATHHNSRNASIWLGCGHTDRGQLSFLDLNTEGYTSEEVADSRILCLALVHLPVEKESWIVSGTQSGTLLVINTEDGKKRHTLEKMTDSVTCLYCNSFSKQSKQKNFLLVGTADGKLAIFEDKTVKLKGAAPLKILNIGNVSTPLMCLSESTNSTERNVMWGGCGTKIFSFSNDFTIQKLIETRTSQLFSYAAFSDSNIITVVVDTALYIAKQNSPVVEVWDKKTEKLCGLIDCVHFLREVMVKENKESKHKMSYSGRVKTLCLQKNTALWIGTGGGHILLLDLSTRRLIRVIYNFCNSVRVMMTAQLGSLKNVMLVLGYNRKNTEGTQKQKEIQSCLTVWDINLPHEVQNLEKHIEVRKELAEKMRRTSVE

| SMILES | pIC50 [1] | pIC50 |
| --- | --- | --- |
| COc1cc(Br)ccc1-c1ccc(OC)c(-c2ccc3c(N[C@H](C)C4CC4)c(C(N)=O)nnc3c2)c1 [Compound 2-203, (R)-7-(4′-bromo-2′,4-dimethoxybiphenyl-3-yl)-4-(1-cyclopropylethylamino)cinnoline-3-carboxamide] | 5.06 |  |
| CCC(C)Sc1c(C(N)=O)nnc2cc(-c3ccc(S(C)(=O)=O)cc3)ccc12 (stereo not drawn) [Compound 2-243, 4-(sec-butylthio)-7-(4-(methylsulfonyl)phenyl)cinnoline-3-carboxamide] | 4.92 |  |
| CC(C)Nc1c(I)nnc2cc(-c3ccc(S(C)(=O)=O)cc3)ccc12 [Compound 3-68, 3-iodo-N-isopropyl-7-(4-(methylsulfonyl)phenyl)cinnolin-4-amine] | 6.02 |  |
| CC(C)Nc1c(-c2cscn2)nnc2cc(-c3ccc(S(C)(=O)=O)cc3)ccc12 [Compound 3-70, N-isopropyl-7-(4-(methylsulfonyl)phenyl)-3-(thiazol-4-yl)cinnolin-4-amine] | < 4.00 |  |
| CC(C)Nc1c(-c2ncco2)nnc2cc(-c3ccc(S(C)(=O)=O)cc3)ccc12 [Compound 3-71, N-isopropyl-7-(4-(methylsulfonyl)phenyl)-3-(oxazol-2-yl)cinnolin-4-amine] | < 4.00 |  |
| CC(C)Nc1c(-c2cccnc2)nnc2cc(-c3ccc(S(C)(=O)=O)cc3)ccc12 [Compound 3-72, N-isopropyl-7-(4-(methylsulfonyl)phenyl)-3-(pyridin-3-yl)cinnolin-4-amine] | 4.89 |  |
| CC(C)Nc1c(Cl)nnc2cc(-c3ccc(S(C)(=O)=O)cc3)ccc12 [Compound 3-84, 3-chloro-N-isopropyl-7-(4-(methylsulfonyl)phenyl) cinnolin-4-amine] | 5.80 |  |
| CC(C)Nc1c(-c2nccc(=O)[nH]2)nnc2cc(-c3ccc(S(C)(=O)=O)cc3)ccc12 [Compound 3-187, 2-(4-(isopropylamino)-7-(4-(methylsulfonyl)phenyl)cinnolin-3-yl)pyrimidin-4(3H)-one] | 6.55 |  |
| CC(C)Nc1c(C(N)=O)nnc2cc(Oc3ccccc3)ccc12 [Compound 4-74, 4-(isopropylamino)-7-phenoxycinnoline-3-carboxamide] | 6.31 |  |
| CC(C)Nc1c(C(N)=O)nnc2cc(Sc3ccccc3)ccc12 [Compound 4-76, 4-(isopropylamino)-7-(phenylthio)cinnoline-3-carboxamide] | 6.25 |  |
| CC(C)Nc1c(C(N)=O)nnc2cc(Nc3ccccc3)ccc12 [Compound 4-78, 4-(isopropylamino)-7-(phenylamino)cinnoline-3-carboxamide] | 7.14 |  |
| CC(C)Nc1c(C(N)=O)nnc2cc(-n3cccn3)ccc12 [Compound 4-80, 4-(isopropylamino)-7-(1H-pyrazol-1-yl)cinnoline-3-carboxamide] | 7.51 |  |
| CC(C)Nc1c(C(N)=O)nnc2cc(N3CCCC3=O)ccc12 [Compound 4-85, 4-(isopropylamino)-7-(2-oxopyrrolidin-1-yl)cinnoline-3-carboxamide] | 6.77 |  |
| CC(C)Nc1c(C(N)=O)nnc2cc(N3CCN(C)CC3)ccc12 [Compound 4-188, 4-(isopropylamino)-7-(4-methylpiperazin-1-yl)cinnoline-3-carboxamide] |  | 7.28 |
| COc1ccccc1Nc1ccc2c(NC(C)C)c(C(N)=O)nnc2c1 [Compound 4-189, 4-(isopropylamino)-7-(2-methoxyphenylamino)cinnoline-3-carboxamide] | 7.17 |  |
| COc1ncccc1Nc1ccc2c(NC(C)C)c(C(N)=O)nnc2c1 [Compound 4-190, 4-(isopropylamino)-7-(2-methoxypyridin-3-ylamino)cinnoline-3-carboxamide] | 7.51 |  |
| CC(C)Nc1c(C(N)=O)nnc2ccc(N3CCOCC3)cc12 [Compound 4-191, 4-(isopropylamino)-6-morpholinocinnoline-3-carboxamide] | 5.89 |  |
| COc1cccc(Nc2ccc3c(NC(C)C)c(C(N)=O)nnc3c2)c1 [Compound 4-192, 4-(isopropylamino)-7-(3-methoxyphenylamino)cinnoline-3-carboxamide] | 6.62 |  |
| CC(C)Nc1c(C(N)=O)nnc2cc(-c3cscn3)ccc12 [Compound 5-55, 4-(isopropylamino)-7-(thiazol-4-yl)cinnoline-3-carboxamide] | 7.89 |  |
| Cc1nnc2cc(-c3ccc(S(C)(=O)=O)cc3)ccc2c1NC(C)C [Compound 6-83, N-isopropyl-3-methyl-7-(4-(methylsulfonyl)phenyl)cinnolin-4-amine] | 4.67 |  |
| CC(C)Nc1c(C(N)=O)nnc2cc(CCO)ccc12 [Compound 7-198, 7-(2-hydroxyethyl)-4-(isopropylamino)cinnoline-3-carboxamide] | 6.03 |  |
| CC(C)Nc1c(-c2nc[nH]n2)nnc2cc(-c3ccc(S(C)(=O)=O)cc3)ccc12 [Compound 8-200, N-Isopropyl-7-(4-(methylsulfonyl)phenyl)-3-(1H-1,2,4-triazol-3-yl)cinnolin-4-amine] | 6.38 |  |
| COc1ccc(N2CCOC2=O)cc1-c1ccc2c(N[C@H](C)C3CC3)c(C(N)=O)nnc2c1 [Compound 9-206, (R)-4-(1-cyclopropylethylamino)-7-(2-methoxy-5-(2-oxooxazolidin-3-yl)phenyl)cinnoline-3-carboxamide] | 7.27 |  |
| COc1ccc(-n2cccn2)cc1-c1ccc2c(N[C@H](C)C3CC3)c(C(N)=O)nnc2c1 [Compound 9-207, (R)-4-(1-cyclopropylethylamino)-7-(2-methoxy-5-(1H-pyrazol-1-yl)phenyl)cinnoline-3-carboxamide] | 6.55 |  |
| COc1cc(N2CCOC2=O)ccc1-c1ccc(OC)c(-c2ccc3c(N[C@H](C)C4CC4)c(C(N)=O)nnc3c2)c1 [Compound 9-208, (R)-4-(1-cyclopropylethylamino)-7-(2′,4-dimethoxy-4′-(2-oxooxazolidin-3-yl)biphenyl-3-yl)cinnoline-3-carboxamide] | 5.96 |  |
| COc1ccc(N2CCOCC2=O)cc1-c1ccc2c(N[C@H](C)C3CC3)c(C(N)=O)nnc2c1 [Compound 9-209, (R)-4-(1-cyclopropylethylamino)-7-(2-methoxy-5-(3-oxomorpholino)phenyl)cinnoline-3-carboxamide] | 7.20 |  |
| COc1cc(N2CCOCC2=O)ccc1-c1ccc(OC)c(-c2ccc3c(N[C@H](C)C4CC4)c(C(N)=O)nnc3c2)c1 [Compound 9-210, (R)-4-(1-cyclopropylethylamino)-7-(2′,4-dimethoxy-4′-(3-oxomorpholino)biphenyl-3-yl)cinnoline-3-carboxamide] | 6.31 |  |
| C[C@@H](Nc1c(C(N)=O)nnc2cc(-c3ccc(N4CCOC4=O)cc3)ccc12)C1CC1 [Compound 9-213, (R)-4-(1-cyclopropylethylamino)-7-(4-(2-oxooxazolidin-3-yl)phenyl)cinnoline-3-carboxamide] | 9.00 |  |
| C#Cc1nnc2cc(-c3ccc(S(C)(=O)=O)cc3)ccc2c1NC(C)C [Compound 10-87, 3-ethynyl-N-isopropyl-7-(4-(methylsulfonyl)phenyl)cinnolin-4-amine] | 6.00 |  |
| COc1cc(-c2ncccc2F)ccc1-c1ccc2c(N[C@H](C)C3CC3)c(C(N)=O)nnc2c1 [Compound 11-218, (R)-4-(1-Cyclopropylethylamino)-7-(4-(3-fluoropyridin-2-yl)-2-methoxyphenyl)cinnoline-3-carboxamide] | 7.37 |  |
